Results from ChEMBL document CHEMBL1687905, “Blockade of IL-6 secretion pathway by the sesquiterpenoid atractylenolide III” (J Nat Prod, 2011).
Activity calls are given as the source filed them. The calls are words filed in the database; no cut-off is given here.

Legend:
HMC1 [1] = assay: Immunomodulatory activity in human HMC1 cells assessed as inhibition of phorbol 12-myristate 13-acetate/A23187-stimulated IL1-beta secretion treated 1 hr prior to 30 mins phorbol 12-myristate 13-acetate/A23187 challenge by Western blotting analysis; format: functional, cell-based
[2] = Cytotoxicity against human HMC1 cells assessed as cell viability at 1 to 100 uM after 8 hrs by MTT colorimetric assay; format: cell-based; settings: hmc1, 8 h
HMC1 [3] = assay: Suppression of NF-kappaB activation in human HMC1 cells assessed as inhibition of phorbol 12-myristate 13-acetate/A23187-stimulated nuclear Rel A/p65 level at 1 to 100 uM treated 1 hr prior to 2 hrs phorbol 12-myristate 13-acetate/A23187 challenge by Western blotting analysis; format: cell-based
HMC1 [4] = assay: Immunomodulatory activity in human HMC1 cells assessed as inhibition of phorbol 12-myristate 13-acetate/A23187-stimulated IL1-beta secretion at 1 to 100 uM treated 1 hr prior to 30 mins phorbol 12-myristate 13-acetate/A23187 challenge by Western blotting analysis; format: functional, cell-based
HMC1 [5] = assay: Immunomodulatory activity in human HMC1 cells assessed as inhibition of phorbol 12-myristate 13-acetate/A23187-stimulated ERK phosphorylation at 1 to 100 uM treated 1 hr prior to 30 mins phorbol 12-myristate 13-acetate/A23187 challenge; format: functional, cell-based
HMC1 [6] = assay: Immunomodulatory activity in human HMC1 cells assessed as inhibition of phorbol 12-myristate 13-acetate/A23187-stimulated histamine secretion at 100 uM treated 1 hr prior to 6 hrs phorbol 12-myristate 13-acetate/A23187 challenge by histamine assay kit; format: functional, cell-based
HMC1 [7] = assay: Immunomodulatory activity in human HMC1 cells assessed as inhibition of phorbol 12-myristate 13-acetate/A23187-stimulated caspase 1 activation at 1 to 100 uM treated 1 hr prior to 30 mins phorbol 12-myristate 13-acetate/A23187 challenge by caspase colorimetric assay; format: functional, cell-based
HMC1 [8] = assay: Immunomodulatory activity in human HMC1 cells assessed as inhibition of phorbol 12-myristate 13-acetate/A23187-stimulated RIP-2 activation at 1 to 100 uM treated 1 hr prior to 30 mins phorbol 12-myristate 13-acetate/A23187 challenge by Western blotting analysis; format: functional, cell-based
HMC1 [9] = assay: Immunomodulatory activity in human HMC1 cells assessed as inhibition of phorbol 12-myristate 13-acetate/A23187-stimulated caspase 1 activation at 1 to 100 uM treated 1 hr prior to 30 mins phorbol 12-myristate 13-acetate/A23187 challenge by Western blotting analysis; format: functional, cell-based
HMC1 [10] = assay: Immunomodulatory activity in human HMC1 cells assessed as inhibition of phorbol 12-myristate 13-acetate/A23187-stimulated p38 phosphorylation at 1 to 100 uM treated 1 hr prior to 30 mic phorbol 12-myristate 13-acetate/A23187 challenge; format: functional, cell-based
HMC1 [11] = assay: Immunomodulatory activity in human HMC1 cells assessed as inhibition of phorbol 12-myristate 13-acetate/A23187-stimulated IL-6 secretion by ELISA method; format: functional, cell-based
HMC1 [12] = assay: Suppression of NF-kappaB activation in human HMC1 cells assessed as inhibition of phorbol 12-myristate 13-acetate/A23187-stimulated IkappaB-alpha degradation at 1 to 100 uM treated 1 hr prior to 2 hrs phorbol 12-myristate 13-acetate/A23187 challenge by Western blotting analysis; format: cell-based
HMC1 [13] = assay: Suppression of NF-kappaB activation in human HMC1 cells assessed as inhibition of phorbol 12-myristate 13-acetate/A23187-stimulated luciferase activity at 1 to 100 uM treated 1 hr prior to 24 hrs phorbol 12-myristate 13-acetate/A23187 challenge by luciferase reporter gene assay; format: cell-based
HMC1 [14] = assay: Immunomodulatory activity in human HMC1 cells assessed as inhibition of phorbol 12-myristate 13-acetate/A23187-stimulated IL-6 mRNA expression at 1 to 100 uM treated 1 hr prior to 5 hrs phorbol 12-myristate 13-acetate/A23187 challenge by RT-PCR analysis; format: functional, cell-based
HMC1 [15] = assay: Immunomodulatory activity in human HMC1 cells assessed as inhibition of phorbol 12-myristate 13-acetate/A23187-stimulated JNK phosphorylation at 1 to 100 uM treated 1 hr prior to 30 mic phorbol 12-myristate 13-acetate/A23187 challenge; format: functional, cell-based

With `C[C@@H]1C[C@H]2[C@@H]3CCC4=CC(=O)C=C[C@]4(C)[C@@]3(F)[C@@H](O)C[C@]2(C)[C@@]1(O)C(=O)CO` the inhibition (HMC1 [1]) was “Active”.
In the case of `C=C1CCC[C@]2(C)C[C@]3(O)OC(=O)C(C)=C3C[C@@H]12` [ATRACTYLENOLIDE III], the Activity [2] is reported as “Non-toxic”, the inhibition (HMC1 [3]) is reported as “Active” and the inhibition (HMC1 [4]) is reported as “Active”. The inhibition (HMC1 [5]) was “inactive”, the inhibition (HMC1 [6]) was “Active” and the inhibition (HMC1 [7]) was “Active”. For the same compound, the inhibition (HMC1 [8]) was “Dose-dependent effect”, the inhibition (HMC1 [9]) was “Dose-dependent effect” and the inhibition (HMC1 [10]) was “Active”. For the same compound, the inhibition (HMC1 [11]) was “Dose-dependent effect”, the inhibition (HMC1 [12]) was “Active” and the inhibition (HMC1 [13]) was “Active”. The inhibition (HMC1 [14]) was “Active” and the inhibition (HMC1 [15]) was “Active”.
